Test results published in ChEMBL document CHEMBL1123852, “Synthesis and structure-activity studies of corticosteroid 17-heterocyclic aromatic esters. 1. 9 alpha, 11 beta-dichloro series” (1987).

What was measured:
[1] = species on record: Mus musculus; test: Antiinflammatory potency to betamethasone 17-valerate measured in mice using 5 day Tonelli croton oil ear test.; format: functional
[2] = species on record: Mus musculus; test: Antiinflammatory potency to betamethasone 17-valerate measured in mice using 5 hr Tonelli croton oil ear test.; format: functional

SMILES	Topical potency [1]	Topical potency [2]
CCC(=O)OCC(=O)[C@@]1(OC(=O)c2ccco2)C(C)CC2C3CCC4=CC(=O)C=CC4(C)[C@@]3(Cl)C(Cl)CC21C (some centres undefined)	0.9	1.1
CC1CC2C3CCC4=CC(=O)C=CC4(C)[C@@]3(Cl)C(Cl)CC2(C)[C@@]1(OC(=O)c1ccco1)C(=O)CO (some centres undefined)	–	0.8
CC(=O)OCC(=O)[C@@]1(OC(=O)c2ccco2)[C@H](C)CC2C3CCC4=CC(=O)C=C[C@]4(C)[C@@]3(Cl)C(Cl)C[C@@]21C (some centres undefined)	1.2	1.4
CC1CC2C3CCC4=CC(=O)C=CC4(C)[C@@]3(Cl)C(Cl)CC2(C)[C@@]1(OC(=O)c1cccs1)C(=O)CCl (some centres undefined)	3.3	0.7
CCCC(=O)OCC(=O)[C@@]1(OC(=O)c2ccco2)C(C)CC2C3CCC4=CC(=O)C=CC4(C)[C@@]3(Cl)C(Cl)CC21C (some centres undefined)	–	1
CC(=O)OCC(=O)[C@@]1(OC(=O)c2cccn2C)C(C)CC2C3CCC4=CC(=O)C=CC4(C)[C@@]3(Cl)C(Cl)CC21C (some centres undefined)	–	1.1
CC1CC2C3CCC4=CC(=O)C=CC4(C)[C@@]3(Cl)C(Cl)CC2(C)[C@@]1(OC(=O)c1ccoc1)C(=O)CCl (some centres undefined)	1.7	1
C[C@H]1CC2C3CCC4=CC(=O)C=C[C@]4(C)[C@@]3(Cl)C(Cl)C[C@]2(C)[C@@]1(OC(=O)c1ccco1)C(=O)CCl (some centres undefined)	0.8	1.2
CC(=O)OCC(=O)[C@@]1(OC(=O)c2ccc(Br)o2)C(C)CC2C3CCC4=CC(=O)C=CC4(C)[C@@]3(Cl)C(Cl)CC21C (some centres undefined)	–	0.6
CC(=O)OCC(=O)[C@@]1(OC(=O)c2ccsc2)C(C)CC2C3CCC4=CC(=O)C=CC4(C)[C@@]3(Cl)C(Cl)CC21C (some centres undefined)	3.2	0.9
CCCCC(=O)O[C@]1(C(=O)CO)[C@@H](C)C[C@H]2[C@@H]3CCC4=CC(=O)C=C[C@]4(C)[C@@]3(F)[C@@H](O)C[C@@]21C [BETAMETHASONE VALERATE]	1	1
CC(=O)OCC(=O)[C@@]1(OC(=O)c2ccoc2)C(C)CC2C3CCC4=CC(=O)C=CC4(C)[C@@]3(Cl)C(Cl)CC21C (some centres undefined)	1.4	1.3
CC(=O)OCC(=O)[C@@]1(OC(=O)c2cnc3ccccc3n2)C(C)CC2C3CCC4=CC(=O)C=CC4(C)[C@@]3(Cl)C(Cl)CC21C (some centres undefined)	–	0.3
CC1CC2C3CCC4=CC(=O)C=CC4(C)[C@@]3(Cl)C(Cl)CC2(C)[C@@]1(OC(=O)c1ccco1)C(=O)CF (some centres undefined)	4	1.8
CC1CC2C3CCC4=CC(=O)C=CC4(C)[C@@]3(Cl)C(Cl)CC2(C)[C@@]1(OC(=O)c1ccoc1)C(=O)CO (some centres undefined)	–	0.7
CC(=O)OCC(=O)[C@@]1(OC(=O)c2ccc(C)s2)C(C)CC2C3CCC4=CC(=O)C=CC4(C)[C@@]3(Cl)C(Cl)CC21C (some centres undefined)	0.56	1.2
C[C@@H]1CC2C3CCC4=CC(=O)C=C[C@]4(C)[C@@]3(Cl)C(Cl)C[C@]2(C)[C@@]1(OC(=O)c1ccco1)C(=O)CCl (some centres undefined)	8.2	1.9
CC(=O)OCC(=O)[C@@]1(OC(=O)c2ccco2)C(C)CC2C3C[C@H](F)C4=CC(=O)C=CC4(C)[C@@]3(Cl)C(Cl)CC21C (some centres undefined)	1.8	3.3
CC1CC2C3CCC4=CC(=O)C=CC4(C)[C@@]3(Cl)C(Cl)CC2(C)[C@@]1(OC(=O)c1cccs1)C(=O)CO (some centres undefined)	–	0.8
COCC(=O)OCC(=O)[C@@]1(OC(=O)c2ccco2)C(C)CC2C3CCC4=CC(=O)C=CC4(C)[C@@]3(Cl)C(Cl)CC21C (some centres undefined)	3	1
CC(=O)OCC(=O)[C@@]1(OC(=O)c2ccco2)[C@@H](C)CC2C3CCC4=CC(=O)C=C[C@]4(C)[C@@]3(Cl)C(Cl)C[C@@]21C (some centres undefined)	1.7	1.3
CC(=O)OCC(=O)[C@@]1(OC(=O)c2cccs2)C(C)CC2C3CCC4=CC(=O)C=CC4(C)[C@@]3(Cl)C(Cl)CC21C (some centres undefined)	0.8	1.3
CC1CC2C3C[C@H](F)C4=CC(=O)C=CC4(C)[C@@]3(Cl)C(Cl)CC2(C)[C@@]1(OC(=O)c1ccco1)C(=O)CCl (some centres undefined)	3	2.5
